In the supplement of paper PMC11451515:

System: P12-Ichikawa
Assay: cell viability relative to DMSO control; higher = less cytotoxic
Details: 48 h
Method in brief: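 NOMO1, SEM and P12-Ichikawa leukemia cells spent at least four passages adapting to each medium before use. They were seeded at 500 cells/well (NOMO1, SEM) or 1000 cells/well (P12-Ichikawa) in 5 μl in 1536-well plates and pin-dosed with library compounds in DMSO at 11 threefold steps from 47 μM down to 0.79 nM. After 48 h at 37°C, CellTiter-Glo One luminescence was read. Viability is reported as a percentage of the DMSO wells on each plate, with cell-free wells as background.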

[1] = HPLM + 10% dialyzed FBS, 0.000781 µM
[2] = HPLM + 10% dialyzed FBS, 0.00234 µM
[3] = HPLM + 10% dialyzed FBS, 0.00702 µM
[4] = HPLM + 10% dialyzed FBS, 0.0211 µM
[5] = HPLM + 10% dialyzed FBS, 0.0632 µM
[6] = HPLM + 10% dialyzed FBS, 0.19 µM
[7] = HPLM + 10% dialyzed FBS, 0.569 µM
[8] = HPLM + 10% dialyzed FBS, 1.71 µM
[9] = HPLM + 10% dialyzed FBS, 5.12 µM
[10] = HPLM + 10% dialyzed FBS, 15.4 µM
[11] = HPLM + 10% dialyzed FBS, 46.1 µM
[12] = RPMI 5 mM glucose + 10% FBS, 0.000781 µM
[13] = RPMI 5 mM glucose + 10% FBS, 0.00234 µM
[14] = RPMI 5 mM glucose + 10% FBS, 0.00702 µM
[15] = RPMI 5 mM glucose + 10% FBS, 0.0211 µM
[16] = RPMI 5 mM glucose + 10% FBS, 0.0632 µM
[17] = RPMI 5 mM glucose + 10% FBS, 0.19 µM
[18] = RPMI 5 mM glucose + 10% FBS, 0.569 µM
[19] = RPMI 5 mM glucose + 10% FBS, 1.71 µM
[20] = RPMI 5 mM glucose + 10% FBS, 5.12 µM
[21] = RPMI 5 mM glucose + 10% FBS, 15.4 µM
[22] = RPMI 5 mM glucose + 10% FBS, 46.1 µM
[23] = RPMI 5 mM glucose + 10% dialyzed FBS, 0.000781 µM
[24] = RPMI 5 mM glucose + 10% dialyzed FBS, 0.00234 µM
[25] = RPMI 5 mM glucose + 10% dialyzed FBS, 0.00702 µM
[26] = RPMI 5 mM glucose + 10% dialyzed FBS, 0.0211 µM
[27] = RPMI 5 mM glucose + 10% dialyzed FBS, 0.0632 µM
[28] = RPMI 5 mM glucose + 10% dialyzed FBS, 0.19 µM
[29] = RPMI 5 mM glucose + 10% dialyzed FBS, 0.569 µM
[30] = RPMI 5 mM glucose + 10% dialyzed FBS, 1.71 µM
[31] = RPMI 5 mM glucose + 10% dialyzed FBS, 5.12 µM
[32] = RPMI 5 mM glucose + 10% dialyzed FBS, 15.4 µM
[33] = RPMI 5 mM glucose + 10% dialyzed FBS, 46.1 µM

Compound | cell viability [1] | cell viability [2] | cell viability [3] | cell viability [4] | cell viability [5] | cell viability [6] | cell viability [7] | cell viability [8] | cell viability [9] | cell viability [10] | cell viability [11] | cell viability [12] | cell viability [13] | cell viability [14] | cell viability [15] | cell viability [16] | cell viability [17] | cell viability [18] | cell viability [19] | cell viability [20] | cell viability [21] | cell viability [22] | cell viability [23] | cell viability [24] | cell viability [25] | cell viability [26] | cell viability [27] | cell viability [28] | cell viability [29] | cell viability [30] | cell viability [31] | cell viability [32] | cell viability [33]
COc1c(C)c2c(c(O)c1C/C=C(\C)CCC(=O)O)C(=O)OC2 | 108% | 107% | 111% | 109% | 113% | 109% | 103% | 99.1% | 90.5% | 50.2% | 38.2% | 108% | 110% | 106% | 104% | 112% | 104% | 104% | 85% | 60.9% | 36.7% | 23% | 103% | 97.8% | 95.3% | 100% | 104% | 97.6% | 103% | 82% | 64% | 39.7% | 28.7%
COc1cc2c(cc1OC)CN(CCc1ccc(NC(=O)c3cc(OC)c(OC)cc3NC(=O)c3cnc4ccccc4c3)cc1)CC2 | 114% | 122% | 115% | 114% | 110% | 113% | 111% | 102% | 65.6% | 62.8% | 44.4% | 124% | 112% | 112% | 120% | 112% | 118% | 105% | 92.7% | 64% | 54.1% | 47.5% | 114% | 106% | 116% | 114% | 113% | 114% | 99.4% | 92% | 56.4% | 56.6% | 46.5%
Cc1ccc([S+](=O)([O-])OCC(=O)Nc2ccc(C(=O)O)c(O)c2)cc1 | 106% | 117% | 122% | 126% | 126% | 133% | 120% | 136% | 121% | 102% | 8.9% | – | – | – | – | – | – | – | – | – | – | – | – | – | – | – | – | – | – | – | – | – | –
Oc1nc(-c2ccc(C(F)(F)F)cc2)nc2c1CSCC2 | 102% | 109% | 96.1% | 102% | 109% | 108% | 106% | 98.1% | 100% | 91.5% | 94% | 101% | 102% | 100% | 84.2% | 107% | 99.5% | 108% | 99% | 87.7% | 96.8% | 85.4% | 95.1% | 90.9% | 95.5% | 86.3% | 90.7% | 94.7% | 94.4% | 99% | 87.6% | 87.8% | 79.3%
C=CC(=O)Nc1cc2c(Nc3ccc(F)c(Cl)c3)ncnc2cc1OCCCN1CCOCC1 | 124% | 132% | 119% | 120% | 118% | 122% | 113% | 109% | 94.3% | 67.2% | 53.1% | 117% | 124% | 125% | 126% | 111% | 110% | 118% | 110% | 93.5% | 73.6% | 89.8% | 134% | 122% | 119% | 126% | 126% | 128% | 127% | 108% | 96.4% | 91.6% | 100%
CCc1ccc(/C=C2/SC(=S)NC2=O)cc1 | 84.2% | 87.7% | 79.6% | 88.1% | 90.9% | 80.1% | 91.5% | 84% | 85.3% | 60% | 88.1% | 82.4% | 84.6% | 76% | 88.9% | 82.8% | 77.7% | 85.1% | 87.3% | 84.8% | 46.1% | 87.9% | 77.4% | 83.8% | 81.7% | 81.2% | 87.1% | 76.6% | 87.3% | 83.5% | 81.9% | 38.1% | 90.4%
O=C(O)C(=O)c1cn(Cc2ccccc2)c2ccc(-c3ccc(OC(F)(F)F)cc3)cc12 | 106% | 105% | 109% | 110% | 111% | 109% | 97.6% | 103% | 98.2% | 95% | 93.4% | 99.9% | 109% | 102% | 102% | 100% | 99.9% | 109% | 103% | 102% | 98.4% | 87% | 95.9% | 103% | 98.7% | 101% | 101% | 97.2% | 94.4% | 91.6% | 102% | 99.6% | 90.2%
CCCCOc1c(C(=O)c2c(F)cc(C)cc2F)cnc2[nH]ncc12 | 97.5% | 102% | 104% | 109% | 107% | 89.6% | 104% | 107% | 102% | 91.3% | 95.5% | 104% | 99% | 107% | 102% | 104% | 108% | 103% | 105% | 88.4% | 94.4% | 77.9% | 107% | 104% | 102% | 104% | 101% | 97.4% | 93.8% | 94.6% | 78.9% | 89.6% | 81.3%
